What follows are compounds tested on VK2/E6E7 cells.

Compound | CC50 | concentration at which toxicity was shown
COC1(c2sc3c(N4CCOCC4)nc(-c4cnc(N)nc4)nc3c2C)COC1 [GNE-317] | 201 nM | 80 to 100 nM

Each compound was assayed on MPXV strain hMPXV/USA/MA001/2022 (Lineage B.1, Clade IIb).
Assay type: cell-based, Mpox virus (MPXV)

Compound | Duplicate of Duplicate of Hits: No CPE
C#Cc1cccc(Nc2ncnc3cc(OCCOC)c(OCCOC)cc23)c1 [Erlotinib] | 1
C=CC(=O)Nc1ccc2ncnc(Nc3cccc(Br)c3)c2c1 [NKIL-PD168393, PD168393] | 1
XMU-MP-3 [MC-XMU-MP-3] | 1
Cc1c(CN2CCN(C(=O)[C@H](C)O)CC2)sc2c(N3CCOCC3)nc(-c3cnc(N)nc3)nc12 [NKIL-GDC-0980 (RG7422), Apitolisib] | 1
C=CC(=O)Nc1cccc(Oc2nc(Nc3ccc(N4CCN(C)CC4)cc3)nc3ccoc23)c1 [MC-Poseltinib, Poseltinib] | 1
C=CC(=O)Nc1cc(Nc2nccc(-c3cn(C)c4ccccc34)n2)c(OC)cc1N(C)CCNC.CS(=O)(=O)O.CS(=O)(=O)O.CS(=O)(=O)O [MC-AZ7550 Mesylate, AZ7550 Mesylate] | 1
CS[C@@]1(C(=O)Nc2ccc3[nH]nc(-c4ccc(OC(C)C)nc4)c3c2)CCN(CC(=O)N2CC=C(c3ccc(-c4ncn(C)n4)cc3)CC2)C1 [MC-MK-8353, MK-8353] | 1
CN(C)C/C=C/C(=O)Nc1cc2c(Nc3ccc(F)c(Cl)c3)ncnc2cc1O[C@H]1CCOC1.O=C(O)/C=C\C(=O)O.O=C(O)/C=C\C(=O)O [MC-Afatinib (dimaleate), Afatinib (dimaleate)] | 1
Cc1c(=O)n(C)c(Nc2ccc(I)cc2F)c2c(=O)n(C3CC3)c(=O)n(-c3cccc(N)c3)c12 [MC-GSK1790627, GSK1790627] | 1
Cc1cc(C(=O)Nc2nc3cccc(Cl)c3n2[C@@H]2CCCCN(C(=O)/C=C/CN(C)C)C2)ccn1 [MC-Nazartinib, Nazartinib] | 1
COc1ccc(-c2cc3c(C)nc(N)nc3n([C@H]3CC[C@H](OCCO)CC3)c2=O)cn1 [NKIL-PF-04691502, PF-04691502] | 1
JNK-IN-7 [MC-JNK-IN-7] | 1
COc1cc2ncnc(Nc3cccc(I)c3)c2cc1OC [MC-AG1557, AG1557] | 1
CCN1CCN(Cc2ccc(-c3cc4c(N[C@H](C)c5ccccc5)ncnc4[nH]3)cc2)CC1 [NKIL-AEE788 (NVP-AEE788), AEE788] | 1
Cc1c(CN2CCN(S(C)(=O)=O)CC2)sc2c(N3CCOCC3)nc(-c3cnc(N)nc3)nc12 [MC-GNE-477, GNE-477] | 1
COc1cc2ncnc(Nc3ccc(O)c(Br)c3)c2cc1OC [NKIL-WHI-P154, WHI-P154] | 1
C=CC(=O)Nc1cc(Nc2nccc(-c3cn(C4CC4)c4ccccc34)n2)c(OC)cc1N(C)CCN(C)C.CS(=O)(=O)O [MC-Almonertinib (mesylate), Almonertinib (mesylate)] | 1
C=CC(=O)N[C@H]1C=C(C)c2c(-c3cnc4ccccc4c3)c3c(N)ncnc3n2C1 [MC-Zipalertinib, Zipalertinib] | 1
CN1CCN(c2ccc(Nc3ncc4nc(Nc5ccccc5)n([C@@H]5CCN(S(=O)(=O)C6CC6)C5)c4n3)cc2)CC1 [MC-EGFR-IN-11, EGFR-IN-11] | 1
C#Cc1cccc(Nc2ncnc3cc(OC)c(NC(=O)N4C[C@H]5CCN(C)[C@H]5C4)cc23)c1 [MC-Theliatinib, Theliatinib] | 1

Compound | Duplicate of Duplicate of Hits: No CPE
COCc1c(-c2ccc(NC(=O)Nc3cc(C(F)(F)F)ccc3F)c(F)c2)c2c(N)ncnn2c1CN1CCOCC1 [MC-EOC317, EOC317] | 1
C=CC(=O)Nc1ccc2ncnc(Nc3ccc(OCc4cccc(F)c4)c(Cl)c3)c2c1.Cc1ccc(S(=O)(=O)O)cc1 [NKIL-AST-1306, Allitinib tosylate] | 1
COc1cc2c(Nc3ccc(Cl)c(Cl)c3F)ncnc2cc1OC[C@@H]1C[C@@H]2CN(C)C[C@@H]2C1 [MC-Tesevatinib, Tesevatinib] | 1
O=C(NOCCO)c1cc(CN2OCCCC2=O)c(F)c(F)c1Nc1ccc(I)cc1F [MC-RO4987655, RO4987655] | 1
JAK-IN-23 [MC-JAK-IN-23] | 1
C=CC(=O)Nc1cc2c(Nc3ccc(F)c(Cl)c3)ncnc2cc1OCCCN1CCOCC1 [MC-Canertinib, Canertinib] | 1
COc1cc2ncnc(Nc3cccc(Br)c3)c2cc1OC.Cl [LOPAC-PD153035 hydrochloride, PD153035 hydrochloride] | 1
C=CC(=O)Nc1cccc(Oc2nc(Nc3ccc(N4CCN(C)CC4)cc3)ncc2Cl)c1 [NKIL-WZ3146, WZ3146] | 1
C=CCn1cc(-c2ccc(NC(=O)Nc3cc(C(C)(C)C)on3)cc2)c2c(N)ncnc21 [MC-FLT3-IN-4, FLT3-IN-4] | 1
COc1c(F)cccc1Nc1c(-c2ccncc2OCC(C)(C)OC)[nH]c2c1C(=O)NCC2 [MC-BAY 2476568, BAY 2476568] | 1
C=CC(=O)Nc1cc(Nc2nccc(-c3cn(C)c4ccccc34)n2)c(OC)cc1N(C)CCN(C)C [NKIL-AZD9291, Osimertinib] | 1
O=C(NOC[C@H](O)CO)c1ccc(F)c(F)c1Nc1ccc(I)cc1F [LOPAC-PD 0325901, Mirdametinib] | 1
C=CC(=O)Nc1cccc(Sc2nc(Nc3ccc(N4CCN(C)CC4)cc3)ncc2Cl)c1 [NKIL-WZ8040, WZ8040] | 1
C=CC(=O)Nc1cc(Nc2ncc(C(=O)OC(C)C)c(-c3cn(C)c4ccccc34)n2)c(OC)cc1N(C)CCN(C)C.O=C(O)CCC(=O)O [MC-Mobocertinib (succinate), Mobocertinib (succinate)] | 1
CN(C)C/C=C/C(=O)Nc1cc2c(Nc3ccc(F)c(Cl)c3)ncnc2cc1O[C@H]1CCOC1 [NKIL-Afatinib (BIBW2992), Afatinib] | 1
C=CC(=O)N1CCC[C@@H](n2nc(-c3ccc(Oc4ccccc4)cc3)c(C(N)=O)c2N)C1 [MC-Btk inhibitor 2, Btk inhibitor 2] | 1
CC(=O)Nc1cccc(-n2c(=O)n(C3CC3)c(=O)c3c(Nc4ccc(I)cc4F)n(C)c(=O)c(C)c32)c1.C[S+](C)[O-] [MC-Trametinib (DMSO solvate), Trametinib (DMSO solvate)] | 1
COc1cccc(Nc2ncnn3ccc(CN4CC[C@@H](N)[C@H](O)C4)c23)c1 [MC-BMS-690514, BMS-690514] | 1
COc1ncc(-c2ccc3nccc(C#CCN4CCN(S(C)(=O)=O)CC4)c3c2)cc1NS(=O)(=O)c1ccc(F)cc1F [MC-NSC781406, NSC781406] | 1
CNc1ncc2cc(-c3cc(NC(=O)NCCC(C)(C)C)c(F)cc3C)c(C)nc2n1 [MC-LY3009120, LY3009120] | 1

Compound | Duplicate of Duplicate of Hits: No CPE
Mutant EGFR inhibitor [MC-Mutant EGFR inhibitor] | 1
COC1(c2sc3c(N4CCOCC4)nc(-c4cnc(N)nc4)nc3c2C)COC1 [GNE-317] | 1
Cc1cnc(Nc2ccc(F)cc2Cl)nc1-c1c[nH]c(C(=O)N[C@H](CO)c2cccc(Cl)c2)c1 [NKIL-VX-11e, VX-11e] | 1
C=CC(=O)Nc1cccc(Oc2nc(Nc3ccc(N4CCN(C)CC4)c(F)c3)nc3[nH]ccc23)c1 [MC-Avitinib, Avitinib] | 1
CCS(=O)(=O)c1cc(Nc2ncc(F)c(N(Cc3ccccc3C#N)c3cc(CO)ccc3C)n2)ccc1N1CCN(C)CC1 [MC-AZ13705339, AZ13705339] | 1
Cc1nc2c(-c3cnc(N)nc3)nc(N3CCOCC3)nc2n1C(C)C [NKIL-VS-5584 (SB2343), VS-5584] | 1
C=CC(=O)Nc1cccc(Oc2nc(Nc3ccc(N4CCN(C)CC4)c(F)c3)nc3[nH]ccc23)c1.O=C(O)/C=C\C(=O)O [MC-Avitinib (maleate), Avitinib (maleate)] | 1
N[C@@H]1c2ccccc2OC12CCN(c1cnc3c(N4CCCc5ncccc54)n[nH]c3n1)CC2 [MC-Migoprotafib, Migoprotafib] | 1
CCN(CC)CCNC(=O)c1c(C)[nH]c(/C=C2\C(=O)Nc3ccc(Cl)cc32)c1C [MC-SU11652, SU11652] | 1
Cc1cccc([C@@H](CO)NC(=O)[C@@H](C)N2Cc3ccc(-c4nc(NC5CCOCC5)ncc4Cl)cc3C2=O)c1 [MC-ERK1/2 inhibitor 1, ERK1/2 inhibitor 1] | 1
C=CC(=O)N1CCC[C@@H](n2c(=O)n(-c3ccc(Oc4ccccc4)cc3)c3c(N)nccc32)C1 [MC-Tolebrutinib, Tolebrutinib] | 1
Cc1cccc(/C=N/Nc2cc(N3CCOCC3)nc(OCCc3ccccn3)n2)c1 [MC-Apilimod, Apilimod] | 1
CN(C)C/C=C/C(=O)Nc1cccc(-c2c(-c3ccccc3)oc3ncnc(N[C@H](CO)c4ccccc4)c23)c1 [MC-DBPR112, DBPR112] | 1
C#Cc1cccc(Nc2ncnc3cc(OC)c(OCCCN4CCOCC4)cc23)c1 [MC-NRC-2694, NRC-2694] | 1
Cn1nccc1Nc1nccc(-c2cc3c(s2)C(C)(C)N(CCN2CCOCC2)C3=O)n1 [MC-Temuterkib, Temuterkib] | 1
SBI-581 [MC-SBI-581] | 1
C=CC(=O)Nc1cc(Nc2nccc(Nc3cc(Cl)c(F)cc3C(C)(C)O)n2)c(OC)cc1N1CC[C@@H](N(C)C)C1 [MC-Sunvozertinib, Sunvozertinib] | 1
C=CC(=O)Nc1cc(C)ccc1Nc1nc(Nc2cc(OC)ncc2C)ncc1C(F)(F)F [MC-CC-90003, CC-90003] | 1
Cn1c(=O)c(F)c(Nc2ccc(I)cc2F)c2c(=O)n(C[C@@H](O)CO)cnc21 [NKIL-TAK-733, TAK-733] | 1
